Assay results reported in paper PMC10817531, “Chlorinated Enyne Fatty Acid Amides from a Marine Cyanobacterium: Discovery of Taveuniamides L-M and Pharmacological Characterization of Taveuniamide F as a GPCR Antagonist with CNR1 Selectivity” (Marine Drugs, 2023).
“And” between values parts separate entries of the source, which are not always exact repeats. Identical values can stand only once.

Assays:
Assay in all cases: PathHunter β-arrestin GpcrMAX assay
Assay type in all cases: cell-based
AVPR2 = AVPR2 (Homo sapiens, UniProt P30518)
Summary of the method: (§1)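 Taveuniamide F tested at 20 µM in agonist and antagonist modes; β-arrestin recruitment read by PathHunter enzyme fragment complementation.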

CALCR = CALCR (Homo sapiens, UniProt P30988)
CALCR, sequence (P30988 25-474): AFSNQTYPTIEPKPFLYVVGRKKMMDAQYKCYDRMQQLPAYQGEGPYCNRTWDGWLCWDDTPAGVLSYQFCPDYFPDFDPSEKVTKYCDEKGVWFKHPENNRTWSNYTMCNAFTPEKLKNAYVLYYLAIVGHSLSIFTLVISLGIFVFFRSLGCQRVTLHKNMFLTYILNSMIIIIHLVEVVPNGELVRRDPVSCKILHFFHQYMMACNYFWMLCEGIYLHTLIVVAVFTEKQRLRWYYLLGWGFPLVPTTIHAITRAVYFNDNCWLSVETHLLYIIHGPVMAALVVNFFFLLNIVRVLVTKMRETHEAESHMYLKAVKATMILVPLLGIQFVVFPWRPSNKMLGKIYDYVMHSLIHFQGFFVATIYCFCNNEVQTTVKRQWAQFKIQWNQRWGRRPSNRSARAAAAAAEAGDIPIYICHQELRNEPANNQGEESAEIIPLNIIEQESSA
Summary of the method: as §1

CALCRL-RAMP2 = CALCRL-RAMP2 (Homo sapiens, UniProt O60895+Q16602)
CALCRL-RAMP2, sequence (Q16602 23-461): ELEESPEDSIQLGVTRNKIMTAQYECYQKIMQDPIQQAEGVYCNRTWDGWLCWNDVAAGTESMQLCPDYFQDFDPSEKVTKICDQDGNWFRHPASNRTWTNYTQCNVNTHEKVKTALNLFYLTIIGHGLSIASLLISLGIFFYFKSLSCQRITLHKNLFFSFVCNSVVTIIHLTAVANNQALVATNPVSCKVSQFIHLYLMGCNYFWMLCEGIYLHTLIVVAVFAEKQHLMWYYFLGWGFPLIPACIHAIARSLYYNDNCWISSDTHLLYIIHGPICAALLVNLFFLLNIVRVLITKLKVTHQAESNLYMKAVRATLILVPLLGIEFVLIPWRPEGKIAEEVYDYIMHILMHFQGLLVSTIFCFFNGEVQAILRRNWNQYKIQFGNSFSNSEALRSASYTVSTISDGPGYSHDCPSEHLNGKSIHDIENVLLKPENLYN
CALCRL-RAMP2, sequence (O60895 43-175 partner): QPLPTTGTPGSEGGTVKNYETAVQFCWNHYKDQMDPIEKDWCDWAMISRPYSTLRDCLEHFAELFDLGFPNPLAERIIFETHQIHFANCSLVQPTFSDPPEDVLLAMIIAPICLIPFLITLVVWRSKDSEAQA
Summary of the method: as §1

CALCRL-RAMP3 = CALCRL-RAMP3 (Homo sapiens, UniProt O60896+Q16602)
CALCRL-RAMP3, sequence (Q16602 23-461): as the sequence (Q16602 23-461) above
CALCRL-RAMP3, sequence (O60896 24-148 partner): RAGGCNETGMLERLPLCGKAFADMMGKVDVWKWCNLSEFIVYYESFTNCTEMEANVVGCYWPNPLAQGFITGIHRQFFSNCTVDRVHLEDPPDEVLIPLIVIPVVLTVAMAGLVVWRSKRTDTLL
Summary of the method: as §1

CCKBR = biological target: T1, CCKBR (Homo sapiens, UniProt P32239)
T1 construct: purchased DiscoveRx (Eurofins) gpcrMAX PathHunter β-arrestin panel
T1 sequence (P32239 whole entry): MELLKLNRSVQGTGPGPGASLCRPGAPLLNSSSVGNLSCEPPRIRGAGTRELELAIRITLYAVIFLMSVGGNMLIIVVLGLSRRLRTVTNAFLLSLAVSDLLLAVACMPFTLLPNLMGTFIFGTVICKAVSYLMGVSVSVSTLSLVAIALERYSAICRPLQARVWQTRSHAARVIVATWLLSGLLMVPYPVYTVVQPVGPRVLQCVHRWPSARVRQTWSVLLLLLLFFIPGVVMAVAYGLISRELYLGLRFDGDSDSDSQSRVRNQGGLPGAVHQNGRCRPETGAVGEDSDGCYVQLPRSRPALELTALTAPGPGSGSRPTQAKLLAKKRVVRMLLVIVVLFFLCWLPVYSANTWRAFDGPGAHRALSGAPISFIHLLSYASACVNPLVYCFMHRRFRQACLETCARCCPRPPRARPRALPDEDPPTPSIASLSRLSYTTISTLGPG
Summary of the method: as §1

EDG6 = biological target: T2, EDG6 (Homo sapiens, UniProt O95977)
T2 construct: purchased DiscoveRx (Eurofins) gpcrMAX PathHunter β-arrestin panel
T2 sequence (O95977 whole entry): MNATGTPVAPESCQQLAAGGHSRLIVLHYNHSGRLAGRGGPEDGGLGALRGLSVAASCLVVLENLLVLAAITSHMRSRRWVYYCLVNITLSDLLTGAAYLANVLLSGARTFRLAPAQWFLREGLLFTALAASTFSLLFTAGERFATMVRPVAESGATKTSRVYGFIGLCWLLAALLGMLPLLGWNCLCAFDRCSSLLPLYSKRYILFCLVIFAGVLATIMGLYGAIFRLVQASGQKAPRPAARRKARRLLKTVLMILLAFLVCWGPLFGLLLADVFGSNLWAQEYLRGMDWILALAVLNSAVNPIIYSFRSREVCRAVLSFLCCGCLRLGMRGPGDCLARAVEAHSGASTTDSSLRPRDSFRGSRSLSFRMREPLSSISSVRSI
Summary of the method: as §1

EDNRA = biological target: T3, EDNRA (Homo sapiens, UniProt P25101)
T3 construct: purchased DiscoveRx (Eurofins) gpcrMAX PathHunter β-arrestin panel
T3 sequence (P25101 21-427): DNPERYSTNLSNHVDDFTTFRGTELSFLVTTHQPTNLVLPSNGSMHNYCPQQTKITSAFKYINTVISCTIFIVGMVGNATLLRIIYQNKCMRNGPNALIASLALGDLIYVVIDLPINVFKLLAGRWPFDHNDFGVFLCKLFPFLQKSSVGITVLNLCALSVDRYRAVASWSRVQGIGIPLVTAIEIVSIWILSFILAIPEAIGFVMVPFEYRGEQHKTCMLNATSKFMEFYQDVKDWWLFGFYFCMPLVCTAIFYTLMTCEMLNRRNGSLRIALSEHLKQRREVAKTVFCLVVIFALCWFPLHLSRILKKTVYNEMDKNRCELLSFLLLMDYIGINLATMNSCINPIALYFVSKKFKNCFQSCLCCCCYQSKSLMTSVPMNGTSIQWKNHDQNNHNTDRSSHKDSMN
Summary of the method: as §1

GPR109A = biological target: T4, GPR109A (Homo sapiens, UniProt Q8TDS4)
T4 construct: purchased DiscoveRx (Eurofins) gpcrMAX PathHunter β-arrestin panel
T4 sequence (Q8TDS4 whole entry): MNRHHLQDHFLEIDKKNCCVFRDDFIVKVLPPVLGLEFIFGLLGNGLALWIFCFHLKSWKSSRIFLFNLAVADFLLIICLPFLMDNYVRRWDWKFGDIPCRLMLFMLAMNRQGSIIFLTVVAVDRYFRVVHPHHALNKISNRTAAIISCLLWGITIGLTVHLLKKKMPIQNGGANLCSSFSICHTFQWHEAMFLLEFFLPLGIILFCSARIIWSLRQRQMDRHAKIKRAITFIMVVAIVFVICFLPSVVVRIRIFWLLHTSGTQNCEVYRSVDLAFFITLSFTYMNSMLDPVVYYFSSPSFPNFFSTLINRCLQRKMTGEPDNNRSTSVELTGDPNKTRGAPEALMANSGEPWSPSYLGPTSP
Summary of the method: as §1

GPR92 = biological target: T5, GPR92 (Homo sapiens, UniProt Q9H1C0)
T5 construct: purchased DiscoveRx (Eurofins) gpcrMAX PathHunter β-arrestin panel
Summary of the method: as §1

NMBR = biological target: T6, NMBR (Homo sapiens, UniProt P28336)
T6 construct: purchased DiscoveRx (Eurofins) gpcrMAX PathHunter β-arrestin panel
T6 sequence (P28336 whole entry): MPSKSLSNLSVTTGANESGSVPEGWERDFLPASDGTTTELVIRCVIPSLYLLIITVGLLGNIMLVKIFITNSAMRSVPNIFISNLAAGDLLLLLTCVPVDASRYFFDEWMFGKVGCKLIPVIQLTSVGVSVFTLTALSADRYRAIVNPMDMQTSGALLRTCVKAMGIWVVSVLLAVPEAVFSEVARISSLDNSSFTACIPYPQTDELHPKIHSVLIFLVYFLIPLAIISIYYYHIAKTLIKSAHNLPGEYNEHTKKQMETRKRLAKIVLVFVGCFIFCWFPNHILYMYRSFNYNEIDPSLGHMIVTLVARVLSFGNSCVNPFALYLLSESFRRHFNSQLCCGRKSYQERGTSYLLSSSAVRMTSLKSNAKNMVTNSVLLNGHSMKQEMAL
Summary of the method: as §1

PPYR1 = biological target: T7, PPYR1 (Homo sapiens, UniProt P50391)
T7 construct: purchased DiscoveRx (Eurofins) gpcrMAX PathHunter β-arrestin panel
T7 sequence (P50391 whole entry): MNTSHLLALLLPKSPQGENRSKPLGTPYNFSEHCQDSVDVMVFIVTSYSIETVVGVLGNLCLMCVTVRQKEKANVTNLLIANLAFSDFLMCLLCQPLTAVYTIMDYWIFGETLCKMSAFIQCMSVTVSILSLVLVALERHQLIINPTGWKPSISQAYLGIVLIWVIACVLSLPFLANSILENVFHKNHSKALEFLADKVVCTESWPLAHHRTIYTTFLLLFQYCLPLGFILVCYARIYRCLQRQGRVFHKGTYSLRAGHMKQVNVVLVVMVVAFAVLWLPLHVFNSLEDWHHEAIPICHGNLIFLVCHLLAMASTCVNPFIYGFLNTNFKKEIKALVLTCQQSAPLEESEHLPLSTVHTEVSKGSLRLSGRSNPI
Summary of the method: as §1

PTAFR = biological target: T8, PTAFR (Homo sapiens, UniProt P25105)
T8 construct: purchased DiscoveRx (Eurofins) gpcrMAX PathHunter β-arrestin panel
T8 sequence (P25105 whole entry): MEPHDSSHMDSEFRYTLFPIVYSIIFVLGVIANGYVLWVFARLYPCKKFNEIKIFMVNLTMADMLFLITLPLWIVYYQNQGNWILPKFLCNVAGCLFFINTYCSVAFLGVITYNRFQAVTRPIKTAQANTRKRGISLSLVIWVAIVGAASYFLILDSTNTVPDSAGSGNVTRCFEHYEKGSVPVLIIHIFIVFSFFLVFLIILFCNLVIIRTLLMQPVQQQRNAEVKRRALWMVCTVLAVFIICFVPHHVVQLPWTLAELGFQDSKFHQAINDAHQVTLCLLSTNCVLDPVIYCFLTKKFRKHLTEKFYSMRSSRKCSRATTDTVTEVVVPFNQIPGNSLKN
Summary of the method: as §1

CCR9 = biological target: T9, CCR9 (Homo sapiens, UniProt P51686)
T9 construct: host or cells: CHO-K1
T9 sequence (P51686 1-369): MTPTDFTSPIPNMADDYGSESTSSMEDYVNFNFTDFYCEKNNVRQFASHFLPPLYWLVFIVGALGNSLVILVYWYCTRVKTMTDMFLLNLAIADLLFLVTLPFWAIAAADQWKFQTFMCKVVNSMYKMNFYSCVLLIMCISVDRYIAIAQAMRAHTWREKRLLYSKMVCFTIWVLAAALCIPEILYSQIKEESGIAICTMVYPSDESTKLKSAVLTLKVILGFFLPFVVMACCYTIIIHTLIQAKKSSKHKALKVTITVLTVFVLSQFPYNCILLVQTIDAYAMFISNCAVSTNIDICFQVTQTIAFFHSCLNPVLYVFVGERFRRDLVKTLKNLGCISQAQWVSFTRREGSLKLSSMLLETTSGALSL
Protocol: (§2) GpcrMAX panel biosensor assays were used to characterize taveuniamide F (4, 20 µM) (agonist and antagonist mode). The experiments were carried out by DiscoveRx Corporation (Fremont, CA, USA) as described before, using PathHunter β-arrestin enzyme fragment complementation (EFC) technology.
(§3) Dose–response curves were obtained by subjecting taveuniamide F (4) to a secondary antagonist screen utilizing ten GPCR biosensor assays (Arrestin) against the following targets: GPR119, NPSR1b, HTR2C, CCR9, CHRM4, GPR120, HTR2A, GPR103, CNR1, and CNR2. Stably transfected HEK293 cells expressing GPR119, U2OS cells expressing NPSR1b, HTR2C and HTR2A, and CHO-K1 cells expressing the rest of the mentioned receptors, were incubated with 4 for 30 min. The assays were performed at 10-point concentrations using 3-fold serial dilutions in duplicate, where the highest concentration was 50 µM.

CHRM4 = biological target: T10, CHRM4 (Homo sapiens, UniProt P08173)
T10 construct: host or cells: CHO-K1
T10 sequence (P08173 1-479): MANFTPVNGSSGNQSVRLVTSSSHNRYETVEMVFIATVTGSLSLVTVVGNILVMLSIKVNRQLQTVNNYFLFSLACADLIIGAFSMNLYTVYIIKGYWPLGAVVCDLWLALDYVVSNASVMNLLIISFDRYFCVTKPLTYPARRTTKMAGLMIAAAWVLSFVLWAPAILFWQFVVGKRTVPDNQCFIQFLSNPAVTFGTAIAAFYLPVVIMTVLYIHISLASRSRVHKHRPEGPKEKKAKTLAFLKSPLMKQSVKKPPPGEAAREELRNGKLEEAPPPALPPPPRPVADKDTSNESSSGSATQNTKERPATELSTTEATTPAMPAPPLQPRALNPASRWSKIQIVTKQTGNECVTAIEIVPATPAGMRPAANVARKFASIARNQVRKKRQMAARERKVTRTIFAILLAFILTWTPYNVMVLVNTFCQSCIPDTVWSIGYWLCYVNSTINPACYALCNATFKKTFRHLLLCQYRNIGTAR
Protocol: as §2, §3

CNR1 = biological target: T11, CNR1 (Homo sapiens, UniProt P21554)
T11 construct: host or cells: CHO-K1
T11 sequence (P21554 whole entry): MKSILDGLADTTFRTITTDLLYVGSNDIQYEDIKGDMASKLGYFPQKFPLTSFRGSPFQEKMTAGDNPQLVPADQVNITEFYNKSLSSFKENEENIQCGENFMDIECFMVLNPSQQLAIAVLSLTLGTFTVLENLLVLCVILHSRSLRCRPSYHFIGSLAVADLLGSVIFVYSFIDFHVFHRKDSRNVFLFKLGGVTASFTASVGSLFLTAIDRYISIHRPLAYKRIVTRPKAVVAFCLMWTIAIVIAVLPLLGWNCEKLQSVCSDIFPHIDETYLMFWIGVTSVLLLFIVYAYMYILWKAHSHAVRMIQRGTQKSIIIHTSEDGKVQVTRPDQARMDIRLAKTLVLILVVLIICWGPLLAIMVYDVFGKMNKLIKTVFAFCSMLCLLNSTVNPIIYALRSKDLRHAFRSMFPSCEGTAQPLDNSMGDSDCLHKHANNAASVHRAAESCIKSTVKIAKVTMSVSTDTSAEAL
Protocol: as §2, §3

GPR103 = biological target: T12, GPR103 (Homo sapiens, UniProt Q96P65)
T12 construct: host or cells: CHO-K1
T12 sequence (Q96P65 1-431): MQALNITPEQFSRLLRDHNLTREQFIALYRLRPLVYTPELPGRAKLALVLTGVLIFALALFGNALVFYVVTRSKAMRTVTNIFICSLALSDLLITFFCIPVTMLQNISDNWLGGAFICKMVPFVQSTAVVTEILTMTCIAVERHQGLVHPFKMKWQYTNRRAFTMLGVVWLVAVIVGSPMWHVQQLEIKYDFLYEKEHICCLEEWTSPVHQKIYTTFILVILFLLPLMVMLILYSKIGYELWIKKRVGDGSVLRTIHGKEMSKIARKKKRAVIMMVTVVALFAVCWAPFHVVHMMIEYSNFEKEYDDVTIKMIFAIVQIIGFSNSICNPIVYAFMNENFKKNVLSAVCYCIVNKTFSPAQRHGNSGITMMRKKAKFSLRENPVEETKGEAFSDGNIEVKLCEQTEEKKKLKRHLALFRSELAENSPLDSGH
Protocol: as §2, §3

GPR119 = biological target: T13, GPR119 (Homo sapiens, UniProt Q8TDV5)
T13 construct: host or cells: HEK293
T13 sequence (Q8TDV5 whole entry): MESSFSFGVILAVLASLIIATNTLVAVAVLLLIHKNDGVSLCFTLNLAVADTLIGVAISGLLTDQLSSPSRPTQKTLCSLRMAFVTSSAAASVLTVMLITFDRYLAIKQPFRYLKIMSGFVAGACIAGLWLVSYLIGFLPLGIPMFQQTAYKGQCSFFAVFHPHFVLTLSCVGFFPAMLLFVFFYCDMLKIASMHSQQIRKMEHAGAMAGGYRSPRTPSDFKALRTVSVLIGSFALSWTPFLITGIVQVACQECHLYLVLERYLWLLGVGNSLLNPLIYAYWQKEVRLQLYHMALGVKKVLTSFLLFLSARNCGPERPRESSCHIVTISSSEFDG
Protocol: as §2, §3

[1] = antagonist dose–response, 10-point, CHO-K1 cells, 30 min
[2] = antagonist mode (% inhibition), 20 µM

CC(=O)N[C@@H](CCCC#C/C=C/Cl)CCCCCCC(Cl)Cl [Compound 4, taveuniamide F] showed an inhibition at 20 µM (AVPR2) of 14.4%, an inhibition at 20 µM (CALCR) of 14.1% and an inhibition at 20 µM (CALCRL-RAMP2) of 13.6%. The inhibition at 20 µM (CALCRL-RAMP3) was 19.3%, the inhibition at 20 µM (CCKBR) was 10.2% and the inhibition at 20 µM (EDG6) was 19.6%. It also gave an inhibition at 20 µM (EDNRA) of 30.7%, an inhibition at 20 µM (GPR109A) of 5.5% and an inhibition at 20 µM (GPR92) of 56.5%. It also gave an inhibition at 20 µM (NMBR) of 39.7%, an inhibition at 20 µM (PPYR1) of 50.7% and an inhibition at 20 µM (PTAFR) of 14.3%. The IC50 (CCR9; [1]) was 7.4 µM and 7.38 µM, the inhibition (CCR9; [2]) was no less than 80% and the inhibition at 20 µM (CCR9; [2]) was 98.9%. For the same molecule, the IC50 (CHRM4; [1]) was 1.9 µM and 1.92 µM, the inhibition (CHRM4; [2]) was no less than 80% and the inhibition at 20 µM (CHRM4; [2]) was 98.2%. For the same molecule, the IC50 (CNR1; [1]) was 1.84 µM, the inhibition (CNR1; [2]) was no less than 80% and the inhibition at 20 µM (CNR1; [2]) was 84%. The “selectivity for CNR1 over CNR2” value (CNR1; antagonist screen (β-arrestin), CNR1 vs. CNR2) was 6.8 fold, the IC50 (GPR103; [1]) was 14 µM and 14.1 µM and the inhibition (GPR103; [2]) was no less than 80%. For the same molecule, the inhibition at 20 µM (GPR103; [2]) was 79.8%, the IC50 (GPR119; antagonist dose–response, 10-point, HEK293 cells, 30 min) was 11.7 µM and the inhibition (GPR119; [2]) was 114% and ≥ 80%.
